This note sets out measurements from patent US20240287138A1, “CYCLIC PEPTIDES FOR INHIBITING TNF RECEPTOR 1 ACTIVITY” (Merck Sharp & Dohme LLC, priority 2023, published 2024).

The target of assay [1] is T1, human TNFR1 extracellular domain (ECD) protein (Homo sapiens, UniProt P19438).
T1 construct: HRV 3C protease cleavage site (C); 6His (C, cleaved yes); made in house; host or cells: Sf21 insect cells (baculovirus), secreted
T1 sequence (P19438 30-211): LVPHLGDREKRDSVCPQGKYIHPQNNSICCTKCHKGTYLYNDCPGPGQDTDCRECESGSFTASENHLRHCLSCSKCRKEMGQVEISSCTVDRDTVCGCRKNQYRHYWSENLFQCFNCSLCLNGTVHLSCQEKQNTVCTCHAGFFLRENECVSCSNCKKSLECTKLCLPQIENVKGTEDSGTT
Kind of assay: SPR binding affinity to captured human TNFR1 ECD. The gist of the method: (§1)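 Read-out: kon, koff and derived affinity from SPR response units. Human TNFR1 and TNFR2 ECD, Avi-tag biotinylated with BirA, captured on a streptavidin surface; peptides injected under laminar flow in HEPES-saline with EDTA, P20 and 2% DMSO.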

The target of the next assay is T2, human TNFR2 ECD protein (Homo sapiens, UniProt P20333).
T2 construct: HRV 3C protease cleavage site (C); 6His (C, cleaved yes); made in house; host or cells: Sf21 insect cells (baculovirus), secreted
T2 sequence (P20333 23-257): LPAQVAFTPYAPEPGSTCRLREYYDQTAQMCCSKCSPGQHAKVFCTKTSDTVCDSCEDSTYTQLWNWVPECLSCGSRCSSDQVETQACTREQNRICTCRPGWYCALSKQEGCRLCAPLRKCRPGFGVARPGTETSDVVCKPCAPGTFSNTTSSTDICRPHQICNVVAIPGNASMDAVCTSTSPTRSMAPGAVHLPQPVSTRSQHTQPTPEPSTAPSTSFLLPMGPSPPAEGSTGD
The assay can be described thus: SPR off-target binding (selectivity) to human TNFR2 ECD. The gist of the method:
as §1

Assay [2] deals with T3, human soluble TNFR1 (sTNFR1) (Homo sapiens, UniProt P19438).
T3 construct: made in house; host or cells: Sf21 (baculovirus)
T3 sequence (P19438 with tags, fused parts or gaps): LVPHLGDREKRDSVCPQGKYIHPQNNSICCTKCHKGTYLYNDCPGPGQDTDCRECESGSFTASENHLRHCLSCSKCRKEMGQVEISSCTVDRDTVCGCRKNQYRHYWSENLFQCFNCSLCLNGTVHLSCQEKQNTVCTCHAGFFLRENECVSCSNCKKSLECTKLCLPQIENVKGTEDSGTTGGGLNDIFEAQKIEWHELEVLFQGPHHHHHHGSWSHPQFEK
The assay can be described thus: Human sTNFR1-peptide displacement assay (LanthaScreen Eu TR-FRET binding assay). In short, it runs like this:
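Readout is the 665/615 nm TR-FRET ratio (Eu anti-His donor, streptavidin-Alexa647 acceptor), normalized to DMSO and saturating displacer, fit by Morrison-based five-parameter logistic for Kd^app. His-tagged sTNFR1 (1-211) prebound to 100 nM biotinylated peptide SEQ ID NO.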
(In general: Time-resolved FRET reads energy transfer from a long-lived donor to a nearby acceptor.)

pIC50, pKd: −log10 of the molar value. Numbered stars: 1 amine (or outer) side, 2 acyl side, 3 side chain; on linkers, the order of the positions; unused ones are H or OH. Bridge positions count the residues as written; N and C are the ends. Square brackets hold non-standard residues; d marks the D form. Peptide text beside a SMILES is read from it. Trp(βS-Me,7-OMe) = COc1cccc2c([C@H](C)[C@H](N)C(=O)O)c[nH]c12; Ala(1-bicyclo(1.1.1)pentyl) = N[C@@H](CC12CC(C1)C2)C(=O)O; Trp(βS-Me) = C[C@@H](c1c[nH]c2ccccc12)[C@H](N)C(=O)O; Trp(7-CN) = N#Cc1cccc2c(C[C@H](N)C(=O)O)c[nH]c12; Trp(7-Cl) = N[C@@H](Cc1c[nH]c2c(Cl)cccc12)C(=O)O; X27 = O=C(O)c1ccc(C[C@H](N[*:1])C(=O)[*:2])cc1F; Phe(4-CONH2) = NC(=O)c1ccc(C[C@H](N)C(=O)O)cc1; Phe(4-COOH) = N[C@@H](Cc1ccc(C(=O)O)cc1)C(=O)O; Trp(7-aza) = N[C@@H](Cc1c[nH]c2ncccc12)C(=O)O; Phe(4-CH2NH2) = NCc1ccc(C[C@H](N)C(=O)O)cc1; X2 = C[C@@H]1CC[C@@H](C(=O)[*:2])N([*:1])C1; Pip(5R-OH) = O=C(O)[C@@H]1CC[C@@H](O)CN1; X1 = O=C([C@@H]1CC[C@H](N[*:1])C1)[*:2]; 4Pal = N[C@@H](Cc1ccncc1)C(=O)O; NMeE = CN[C@@H](CCC(=O)O)C(=O)O; dHyp = O=C(O)[C@H]1C[C@H](O)CN1; Cit = NC(=O)NCCC[C@H](N)C(=O)O; NEtAla = CCN[C@@H](C)C(=O)O; αMeS = C[C@](N)(CO)C(=O)O; Nle = CCCC[C@H](N)C(=O)O; Sar = CNCC(=O)O

For the compound `CCN1C(=O)[C@H](Cc2c[nH]c3c(Cl)cccc23)NC(=O)[C@H](CO)NC(=O)[C@H](Cc2ccncc2)NC(=O)[C@H](CC23CC(C2)C3)NC(=O)CSC[C@@H](C(N)=O)NC(=O)[C@H](Cc2c[nH]c3ncccc23)NC(=O)CN(C)C(=O)[C@H](Cc2ccc(O)cc2)NC(=O)[C@H](Cc2ccc(C(=O)O)cc2)NC(=O)[C@](C)(CO)NC(=O)[C@H](Cc2c[nH]c3ncccc23)NC(=O)[C@H](Cc2ccc(C(=O)O)cc2)NC(=O)[C@H](CC(N)=O)NC(=O)[C@@H]1C` [SEQ ID NO. 232] ({CH2CO}-[Ala(1-bicyclo(1.1.1)pentyl)][4Pal]S[Trp(7-Cl)][NEtAla]N[Phe(4-COOH)][Trp(7-aza)][αMeS][Phe(4-COOH)]Y[Sar][Trp(7-aza)]C-NH2; thioether N-14), the negative-log Kd (pKd) (commonly the negative decadic logarithm of the Kd, by convention in mol/L) in assay [1] was 9.15; on human TNFR2 ECD protein it was below 6.00; in assay [2], 8.67. Besides, the pIC50 (usually −log10 of the IC50, conventionally taken in molar units) in assay [2] is 8.50.

`CCCC[C@@H]1NC(=O)[C@@H]2CC[C@@H](C2)NC(=O)[C@H]([C@@H](C)c2c[nH]c3c(OC)cccc23)NC(=O)CN(C)C(=O)[C@H](Cc2ccc(C(=O)O)cc2)NC(=O)[C@H](Cc2ccc(C(N)=O)cc2)NC(=O)[C@](C)(CO)NC(=O)[C@H](Cc2c[nH]c3c(C#N)cccc23)NC(=O)[C@H](Cc2ccc(C(=O)O)c(F)c2)NC(=O)[C@H](CC(N)=O)NC(=O)[C@H]2C[C@H](O)CN2C(=O)[C@H](Cc2c[nH]c3ncccc23)NC(=O)[C@@H]2CC[C@@H](O)CN2C(=O)[C@H](Cc2ccncc2)NC1=O` [SEQ ID NO. 8] (cyclo([4Pal][Pip(5R-OH)][Trp(7-aza)][dHyp]N[X27][Trp(7-CN)][αMeS][Phe(4-CONH2)][Phe(4-COOH)][Sar][Trp(βS-Me,7-OMe)][X1][Nle])): the negative-log Kd (pKd) in assay [1] was 10.10; at human TNFR2 ECD protein it was below 6.00; in assay [2] it was 10.00.

For `CCCC[C@@H]1NC(=O)CSC[C@@H](C(N)=O)NC(=O)[C@H]([C@@H](C)c2c[nH]c3c(OC)cccc23)NC(=O)CN(C)C(=O)[C@H](Cc2ccc(O)cc2)NC(=O)[C@H](Cc2ccc(C(=O)O)cc2)NC(=O)[C@](C)(CO)NC(=O)[C@H](Cc2c[nH]c3c(Cl)cccc23)NC(=O)[C@H](Cc2ccncc2)NC(=O)[C@H](CC(N)=O)NC(=O)[C@H](CCC(=O)O)N(C)C(=O)[C@H](Cc2c[nH]c3ccccc23)NC(=O)[C@@H]2CC[C@@H](C)CN2C(=O)[C@H](Cc2ccncc2)NC1=O` [SEQ ID NO. 272] ({CH2CO}-[Nle][4Pal][X2]W[NMeE]N[4Pal][Trp(7-Cl)][αMeS][Phe(4-COOH)]Y[Sar][Trp(βS-Me,7-OMe)]C-NH2; thioether N-14), the pKd in assay [1] was 10.00; at human TNFR2 ECD protein, below 6.00; in assay [2] it was 9.68. In assay [2], this compound gave a pIC50 of 9.52.

Consider `C[C@@H](c1c[nH]c2ccccc12)[C@@H]1NC(=O)CN(C)C(=O)[C@H](Cc2c[nH]cn2)NC(=O)[C@H](Cc2ccc(C(=O)O)cc2)NC(=O)[C@](C)(CO)NC(=O)[C@H](Cc2c[nH]c3c(Cl)cccc23)NC(=O)[C@H](Cc2ccc(C(=O)O)cc2)NC(=O)[C@H](CC(N)=O)NC(=O)[C@H]2CCCN2C(=O)[C@H]([C@@H](C)c2c[nH]c3ccccc23)NC(=O)[C@H](CO)NC(=O)[C@H](Cc2ccc(CN)cc2)NC(=O)[C@H](CCCNC(N)=O)NC(=O)CSC[C@@H](C(N)=O)NC1=O` [SEQ ID NO. 215] ({CH2CO}-[Cit][Phe(4-CH2NH2)]S[Trp(βS-Me)][dP]N[Phe(4-COOH)][Trp(7-Cl)][αMeS][Phe(4-COOH)]H[Sar][Trp(βS-Me)]C-NH2; thioether N-14), for which the pKd was 8.74 in assay [1] and below 6.00 at human TNFR2 ECD protein. Moreover, in assay [2], the negative logarithm of the IC50 (pIC50) was 8.55.
